This experiment concerns the target T1, G protein-coupled receptor 119 (GPR-119) (Mesocricetus auratus, UniProt A0A1U8CD06).
T1 construct: hamster-derived β-cells containing G protein-coupled receptor 119 (GPR-119), HIT-T15 cells; host or cells: HIT-T15 (hamster pancreatic β-cells)
T1 sequence (A0A1U8CD06 1-334): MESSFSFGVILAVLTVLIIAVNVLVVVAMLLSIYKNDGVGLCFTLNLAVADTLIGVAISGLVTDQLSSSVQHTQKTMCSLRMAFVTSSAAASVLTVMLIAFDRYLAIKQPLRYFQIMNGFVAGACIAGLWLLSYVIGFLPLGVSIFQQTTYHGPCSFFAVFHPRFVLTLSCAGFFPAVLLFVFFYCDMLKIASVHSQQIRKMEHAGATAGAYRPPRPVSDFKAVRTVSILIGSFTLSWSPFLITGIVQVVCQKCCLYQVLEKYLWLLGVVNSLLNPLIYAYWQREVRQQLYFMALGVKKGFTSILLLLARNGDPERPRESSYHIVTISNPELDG
In words: cAMP activity in HIT-T15 cells (cAMP dynamic kit, FRET). The format is cell-based, hamster. The essentials:
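Hamster HIT-T15 cells (60,000/well) were treated next day with compound at six concentrations, 0.0032–10 μM, for 1 h at 37° C. Cells were then lysed and cAMP measured by competitive HTRF immunoassay (D2-cAMP, cryptate anti-cAMP). Activity was derived as the change in FRET signal relative to DMSO.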

[1] abbreviates: 1 hour at 37° C., six concentrations 0.0032 to 10 μM, read-out: EC50.

Where two headings read alike, the source gives them in different places. Some results are limits rather than exact numbers.

For 20 compounds, EC50 results are on record in patent US10723699B2 (Hyundai Pharm Co., Ltd., priority 2015, dated 2020).

The EC50 is the concentration needed to bring the measured effect to its halfway point. On to `CC(C)c1noc(N2CCC(COc3ccc(C4=CCC(C(=O)N5CC[C@H](F)C5)CC4)cc3F)CC2)n1` (stereo partly drawn) [Example 95, (4-(3-fluoro-4-((1-(3-isopropyl-1,2,4-oxadiazol-5-yl)piperidin-4-yl)methoxy)phenyl)cyclohex-3-enyl)((S)-3-fluoropyrrolidin-1-yl)methanone], for which the EC50 (Table 2, read-out: EC50 value) is not above 50 nM.
Consider `CC(C)c1noc(N2CCC(COc3ccc(C4=CCC(C(=O)N5CCC(=O)C5)CC4)cc3)CC2)n1` (stereo not shown) [Example 251], for which the EC50 by setting is: under setting [1], 22 nM; (Table 2, read-out: EC50 value) not above 50 nM.
The like results for `CCC(F)(F)C(=O)N1CCC(COc2ccc(C3=CCC(C(=O)N4CCOCC4)CC3)cc2F)CC1` (stereo not shown) [Example 439, 2,2-difluoro-1-(4-((2-fluoro-4-(4-(morpholine-4-carbonyl)cyclohex-1-enyl)phenoxy)methyl)piperidin-1-yl)butan-1-one] were, in that order, 5.9 nM and not above 50 nM.
As to `CCc1cnc(N2CCC(COc3ccc(C4=CCC(C(=O)N5CCC5)CC4)c(F)c3)CC2)nc1` (stereo not shown) [Example 425, azetidin-1-yl(4-(4-((1-(5-ethylpyrimidin-2-yl)piperidin-4-yl)methoxy)-2-fluorophenyl)cyclohex-3-enyl)methanone], the concentration giving a half-maximal response (EC50) was 48 nM under setting [1] and not above 50 nM (Table 2, read-out: EC50 value).
As for `CCc1cnc(N2CCC(COc3ccc(C4=CCC(C(=O)N5CCC(O)CC5)CC4)c(F)c3)CC2)nc1` (stereo not shown) [Example 431, (4-(4-((1-(5-ethylpyrimidin-2-yl)piperidin-4-yl)methoxy)-2-fluorophenyl)cyclohex-3-enyl)(4-hydroxypiperidin-1-yl)methanone], the EC50 is 27 nM under setting [1] and not above 50 nM (Table 2, read-out: EC50 value).
For `O=C(Oc1ccccc1)N1CCC(COc2ccc(C3=CCC(C(=O)N4CCCC4)CC3)cc2F)CC1` (stereo not shown) [Example 403, phenyl 4-((2-fluoro-4-(4-(pyrrolidine-1-carbonyl)cyclohex-1-enyl)phenoxy)methyl)piperidine-1-carboxylate] the same measures were 22 nM and not above 50 nM.
The like results for `CCc1cnc(N2CCC(COc3ccc(C4=CCC(C(=O)N5CCN(C(=O)OC(C)(C)C)CC5)CC4)cc3F)CC2)nc1` (stereo not shown) [Example 383, tert-butyl 4-(4-(4-((1-(5-ethylpyrimidin-2-yl)piperidin-4-yl)methoxy)-3-fluorophenyl)cyclohex-3-enecarbonyl)piperazine-1-carboxylate] were, in that order, 48 nM and not above 50 nM.
For `CC(C)c1noc(N2CCC(COc3ccc(C4=CCC(C(=O)N5CCC(CCO)CC5)CC4)cc3F)CC2)n1` (stereo not shown) [Example 335, (4-(3-fluoro-4-((1-(3-isopropyl-1,2,4-oxadiazol-5-yl)piperidin-4-yl)methoxy)phenyl)cyclohex-3-enyl)(4-(2-hydroxyethyl)piperidin-1-yl)methanone] the same measures were 18 nM and not above 50 nM.
As to `CCc1cnc(N2CCC(COc3ccc(C4=CCC(C(=O)N5CCN(C)CC5)CC4)cc3F)CC2)nc1` (stereo not shown) [Example 428, (4-(4-((1-(5-ethylpyrimidin-2-yl)piperidin-4-yl)methoxy)-3-fluorophenyl)cyclohex-3-enyl)(4-methylpiperazin-1-yl)methanone], under setting [1], the EC50 was found to be 70 nM.
On the same count and under the same terms, the figure for `CCc1cnc(N2CCC(COc3ccc(C4=CCC(C(=O)N5CCC(O)CC5)CC4)cc3C#N)CC2)nc1` (stereo not shown) [Example 390, 2-((1-(5-ethylpyrimidin-2-yl)piperidin-4-yl)methoxy)-5-(4-(4-hydroxypiperidine-1-carbonyl)cyclohex-1-enyl)benzonitrile] is 70 nM.
In the case of `CCc1cnc(N2CCC(COc3ccc(C4=CCC(C(=O)N5CCC(=NO)CC5)CC4)cc3)CC2)nc1` (stereo not shown) [Example 277, (4-(4-((1-(5-ethylpyrimidin-2-yl)piperidin-4-yl)methoxy)phenyl)cyclohex-3-enyl)(4-(hydroxyimino)piperidin-1-yl)methanone], the EC50 (Table 2, read-out: EC50 value) is not above 50 nM.
In the case of `CCc1cnc(N2CCC(COc3ccc(C4=CCC(C(=O)N5CCC[C@@H]5CO)CC4)c(F)c3)CC2)nc1` (stereo partly drawn) [Example 427, (4-(4-((1-(5-ethylpyrimidin-2-yl)piperidin-4-yl)methoxy)-2-fluorophenyl)cyclohex-3-enyl)((R)-2-(hydroxymethyl)pyrrolidin-1-yl)methanone], the EC50 reads like this: under setting [1], 32 nM; (Table 2, read-out: EC50 value) not above 50 nM.
As for `CCc1cnc(N2CCC(COc3ccc(C4=CCC(C(=O)N5CCC(F)(F)C5)CC4)c(F)c3)CC2)nc1` (single isomer, unassigned; (-)) [Example 461, (−)-(3,3-difluoropyrrolidin-1-yl)(4-(4-((1-(5-ethylpyrimidin-2-yl)piperidin-4-yl)methoxy)-2-fluorophenyl)cyclohex-3-enyl)methanone], the EC50 under setting [1] was found to be 91 nM.
In the case of `CCc1cnc(N2CCC(COc3ccc(C4=CCC(C(=O)N5CCCCC5)CC4)c(F)c3)CC2)nc1` (stereo not shown) [Example 426, (4-(4-((1-(5-ethylpyrimidin-2-yl)piperidin-4-yl)methoxy)-2-fluorophenyl)cyclohex-3-enyl)(piperidin-1-yl)methanone], the EC50 under setting [1] came out at 6.7 nM and the EC50 (Table 2, read-out: EC50 value) is not above 50 nM.
As for `CC(C)c1noc(N2CCC(COc3ccc(C4=CCC(C(=O)N5CCOCC5)CC4)c(F)c3)CC2)n1` (stereo not shown) [Example 448, (4-(2-fluoro-4-((1-(3-isopropyl-1,2,4-oxadiazol-5-yl)piperidin-4-yl)methoxy)phenyl)cyclohex-3-enyl)(morpholino)methanone], the EC50 is, setting by setting: under setting [1], 25 nM; (Table 2, read-out: EC50 value) not above 50 nM.
The like results for `CCCNC(=O)N1CCN(C(=O)C2CC=C(c3ccc(OCC4CCN(c5ncc(CC)cn5)CC4)cc3)CC2)CC1` (stereo not shown) [Example 412, 4-(4-(4-((1-(5-ethylpyrimidin-2-yl)piperidin-4-yl)methoxy)phenyl)cyclohex-3-enecarbonyl)-N-propylpiperazine-1-carboxamide] were, in that order, 37 nM and not above 50 nM.
Take `CCc1cnc(N2CCC(COc3ccc(C4=CCC(C(=O)N5CCC(O)CC5)CC4)cc3F)CC2)nc1` (stereo not shown) [Example 294, (4-(4-((1-(5-ethylpyrimidin-2-yl)piperidin-4-yl)methoxy)-3-fluorophenyl)cyclohex-3-enyl)(4-hydroxypiperidin-1-yl)methanone]: the EC50 by setting is: under setting [1], 23 nM; (Table 2, read-out: EC50 value) not above 50 nM.
The like results for `CCc1cnc(N2CCC(COc3ccc(C4=CCC(C(=O)N5CC(F)(F)C(F)(F)C5)CC4)c(F)c3)CC2)nc1` (single isomer, unassigned; (+)) [Example 464, (+)-(4-(4-((1-(5-ethylpyrimidin-2-yl)piperidin-4-yl)methoxy)-2-fluorophenyl)cyclohex-3-enyl)(3,3,4,4-tetrafluoropyrrolidin-1-yl)methanone] were, in that order, 13 nM and not above 50 nM.
In the case of `CON=C1CCN(C(=O)C2CC=C(c3ccc(OCC4CCN(C(=O)OC(C)(C)C)CC4)cc3)CC2)CC1` (stereo not shown) [Example 270, tert-butyl 4-((4-(4-(4-(methoxyimino)piperidine-1-carbonyl)cyclohex-1-enyl)phenoxy)methyl)piperidine-1-carboxylate], the EC50 (Table 2, read-out: EC50 value) was not above 50 nM.
In the case of `CCc1cnc(N2CCC(COc3ccc(C4=CCC(C(=O)N5CCC(F)(F)C5)CC4)c(F)c3)CC2)nc1` (single isomer, unassigned; (+)) [Example 462, (+)-(3,3-difluoropyrrolidin-1-yl)(4-(4-((1-(5-ethylpyrimidin-2-yl)piperidin-4-yl)methoxy)-2-fluorophenyl)cyclohex-3-enyl)methanone], the EC50 was 14 nM under setting [1] and not above 50 nM (Table 2, read-out: EC50 value).
